ChEMBL document CHEMBL2321764, “Synthesis and antibacterial activities of new piperidine substituted (5R)-[1,2,3]triazolylmethyl and (5R)-[(4-F-[1,2,3]triazolyl)methyl] oxazolidinones” (Bioorg Med Chem Lett, 2013)
Converted amounts (≈) assume the structure as drawn.

Tests used:
Streptococcus pyogenes = test: Antibacterial activity against Streptococcus pyogenes 308A by agar dilution method; format: functional
Staphylococcus = test: Antibacterial activity against methicillin-resistant coagulase negative Staphylococcus by agar dilution method; format: functional
Enterococcus faecalis = test: Antibacterial activity against vancomycin-resistant Enterococcus faecalis C474 by agar dilution method; format: functional
Staphylococcus aureus = test: Antibacterial activity against methicillin-resistant Staphylococcus aureus C463 by agar dilution method; format: functional
Enterococcus faecium = test: Antibacterial activity against vancomycin-resistant Enterococcus faecium C803 by agar dilution method; format: functional
Streptococcus pneumoniae = test: Antibacterial activity against penicillin-resistant Streptococcus pneumoniae C402 by agar dilution method; format: functional
Streptococcus agalactiae = test: Antibacterial activity against Streptococcus agalactiae ATCC 2901 by agar dilution method; format: functional
Haemophilus influenzae = test: Antibacterial activity against betalactamase positive Haemophilus influenzae by agar dilution method; format: functional
CYP2C9 = CYP2C9 (Homo sapiens, UniProt P11712); test: Inhibition of CYP2C9 (unknown origin) assessed as residual activity at 10 uM; format: ADME; settings: read-out: INH
[1] = molecular target: Voltage-gated inwardly rectifying potassium channel KCNH2 (Homo sapiens, UniProt Q12809); test: Inhibition of human hERG by automated patch clamp assay
CYP1A2 = molecular target: T1, CYP1A2 (Homo sapiens, UniProt P05177); test: Inhibition of CYP1A2 (unknown origin) assessed as residual activity at 10 uM; format: ADME; settings: read-out: INH
T1 sequence (P05177 whole entry): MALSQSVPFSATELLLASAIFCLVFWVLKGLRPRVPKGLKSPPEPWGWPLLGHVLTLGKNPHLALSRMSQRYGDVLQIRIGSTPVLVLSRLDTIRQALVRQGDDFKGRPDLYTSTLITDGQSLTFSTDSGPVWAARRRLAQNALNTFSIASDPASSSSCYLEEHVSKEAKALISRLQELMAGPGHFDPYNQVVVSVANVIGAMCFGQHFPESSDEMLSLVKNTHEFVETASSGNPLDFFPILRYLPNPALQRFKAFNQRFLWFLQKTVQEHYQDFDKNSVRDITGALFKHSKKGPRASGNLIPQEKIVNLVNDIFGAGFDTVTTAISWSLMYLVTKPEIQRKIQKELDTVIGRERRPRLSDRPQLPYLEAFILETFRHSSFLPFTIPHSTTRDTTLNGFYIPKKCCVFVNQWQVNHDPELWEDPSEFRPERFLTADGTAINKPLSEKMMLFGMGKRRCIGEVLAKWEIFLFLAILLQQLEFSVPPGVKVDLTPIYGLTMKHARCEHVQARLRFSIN

CYP2D6 = CYP2D6 (Homo sapiens, UniProt P10635); test: Inhibition of CYP2D6 (unknown origin) assessed as residual activity at 10 uM; format: ADME; settings: read-out: INH
MAO-A = molecular target: T2, MAO-A (Homo sapiens, UniProt P21397); test: Inhibition of human MAO-A assessed as residual activity at 10 uM; settings: read-out: INH
T2 sequence (P21397 whole entry): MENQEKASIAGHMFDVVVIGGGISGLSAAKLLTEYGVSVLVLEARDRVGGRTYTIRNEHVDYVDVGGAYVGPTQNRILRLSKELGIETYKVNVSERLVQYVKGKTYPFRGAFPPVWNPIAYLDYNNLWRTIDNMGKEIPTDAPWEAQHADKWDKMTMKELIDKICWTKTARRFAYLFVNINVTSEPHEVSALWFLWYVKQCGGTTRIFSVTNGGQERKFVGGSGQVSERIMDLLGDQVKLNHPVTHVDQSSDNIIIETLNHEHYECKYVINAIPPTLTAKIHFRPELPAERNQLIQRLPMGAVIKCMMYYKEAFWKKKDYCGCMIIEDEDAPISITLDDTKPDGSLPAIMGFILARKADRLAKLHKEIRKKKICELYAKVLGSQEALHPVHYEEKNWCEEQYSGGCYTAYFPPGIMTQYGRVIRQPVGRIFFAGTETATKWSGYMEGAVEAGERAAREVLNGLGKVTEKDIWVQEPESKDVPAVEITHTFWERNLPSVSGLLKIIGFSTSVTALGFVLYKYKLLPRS

CYP3A4 = CYP3A4 (Homo sapiens, UniProt P08684); test: Inhibition of CYP3A4 (unknown origin) assessed as residual activity at 10 uM; format: ADME; settings: read-out: INH
MAO-B = molecular target: T3, MAO-B (Homo sapiens, UniProt P27338); test: Inhibition of human MAO-B assessed as residual activity at 10 uM; settings: read-out: INH
T3 sequence (P27338 whole entry): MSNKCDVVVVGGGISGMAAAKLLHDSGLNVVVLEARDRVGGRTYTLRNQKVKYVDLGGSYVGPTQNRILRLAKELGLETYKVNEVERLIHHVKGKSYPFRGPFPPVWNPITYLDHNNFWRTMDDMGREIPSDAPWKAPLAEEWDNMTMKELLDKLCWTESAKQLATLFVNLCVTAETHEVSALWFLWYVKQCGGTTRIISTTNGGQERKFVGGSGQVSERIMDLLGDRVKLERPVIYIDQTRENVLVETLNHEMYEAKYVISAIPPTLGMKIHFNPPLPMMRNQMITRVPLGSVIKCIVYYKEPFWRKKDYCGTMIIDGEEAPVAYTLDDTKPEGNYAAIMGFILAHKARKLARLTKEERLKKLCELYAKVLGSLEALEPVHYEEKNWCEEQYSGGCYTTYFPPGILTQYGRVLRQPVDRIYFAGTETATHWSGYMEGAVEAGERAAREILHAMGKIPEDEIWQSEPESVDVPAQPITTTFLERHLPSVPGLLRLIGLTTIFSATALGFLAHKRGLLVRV

Sequence of Voltage-gated inwardly rectifying potassium channel KCNH2 (Q12809 whole entry): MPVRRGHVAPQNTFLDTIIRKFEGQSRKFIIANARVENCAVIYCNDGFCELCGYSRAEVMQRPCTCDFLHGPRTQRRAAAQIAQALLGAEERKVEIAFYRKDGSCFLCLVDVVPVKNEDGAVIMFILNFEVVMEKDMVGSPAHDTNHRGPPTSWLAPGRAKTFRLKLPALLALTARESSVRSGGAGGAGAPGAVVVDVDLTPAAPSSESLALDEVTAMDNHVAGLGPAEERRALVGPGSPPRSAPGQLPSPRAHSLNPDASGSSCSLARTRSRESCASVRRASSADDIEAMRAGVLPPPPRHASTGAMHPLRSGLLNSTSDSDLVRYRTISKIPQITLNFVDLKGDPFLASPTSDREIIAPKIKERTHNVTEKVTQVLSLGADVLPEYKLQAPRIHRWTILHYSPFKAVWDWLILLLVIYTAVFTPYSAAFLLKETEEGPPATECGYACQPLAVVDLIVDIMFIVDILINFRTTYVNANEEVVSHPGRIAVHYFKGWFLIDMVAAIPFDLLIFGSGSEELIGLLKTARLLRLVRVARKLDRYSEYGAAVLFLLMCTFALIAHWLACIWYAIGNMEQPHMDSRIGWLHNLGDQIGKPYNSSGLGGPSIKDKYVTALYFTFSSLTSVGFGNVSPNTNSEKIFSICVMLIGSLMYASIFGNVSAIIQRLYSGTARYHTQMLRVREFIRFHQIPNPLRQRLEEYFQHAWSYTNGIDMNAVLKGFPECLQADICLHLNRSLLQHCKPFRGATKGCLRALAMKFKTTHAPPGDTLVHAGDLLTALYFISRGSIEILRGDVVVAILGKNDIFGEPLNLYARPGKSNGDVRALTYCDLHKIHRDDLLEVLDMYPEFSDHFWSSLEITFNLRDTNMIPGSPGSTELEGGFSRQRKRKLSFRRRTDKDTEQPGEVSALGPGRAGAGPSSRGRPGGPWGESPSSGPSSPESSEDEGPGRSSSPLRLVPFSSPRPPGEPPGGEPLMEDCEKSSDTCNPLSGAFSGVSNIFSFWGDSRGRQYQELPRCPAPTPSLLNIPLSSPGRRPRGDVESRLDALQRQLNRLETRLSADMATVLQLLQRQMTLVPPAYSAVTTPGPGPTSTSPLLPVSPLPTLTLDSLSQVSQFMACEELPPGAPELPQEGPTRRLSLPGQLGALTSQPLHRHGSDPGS
Sequence of CYP3A4 (P08684 whole entry): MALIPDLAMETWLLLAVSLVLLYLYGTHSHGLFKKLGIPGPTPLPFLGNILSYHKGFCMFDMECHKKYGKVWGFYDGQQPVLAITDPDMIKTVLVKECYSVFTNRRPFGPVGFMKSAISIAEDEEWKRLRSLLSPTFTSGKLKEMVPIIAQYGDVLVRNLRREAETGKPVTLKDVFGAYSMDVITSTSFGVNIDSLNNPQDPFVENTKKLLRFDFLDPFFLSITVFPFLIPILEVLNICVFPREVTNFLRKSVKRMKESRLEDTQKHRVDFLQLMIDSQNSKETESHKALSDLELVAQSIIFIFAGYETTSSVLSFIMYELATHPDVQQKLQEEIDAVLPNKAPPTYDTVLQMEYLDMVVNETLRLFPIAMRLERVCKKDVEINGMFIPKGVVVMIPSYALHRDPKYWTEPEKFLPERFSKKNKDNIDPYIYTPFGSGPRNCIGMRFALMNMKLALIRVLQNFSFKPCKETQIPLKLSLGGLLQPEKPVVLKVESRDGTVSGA
Sequence of CYP2C9 (P11712 whole entry): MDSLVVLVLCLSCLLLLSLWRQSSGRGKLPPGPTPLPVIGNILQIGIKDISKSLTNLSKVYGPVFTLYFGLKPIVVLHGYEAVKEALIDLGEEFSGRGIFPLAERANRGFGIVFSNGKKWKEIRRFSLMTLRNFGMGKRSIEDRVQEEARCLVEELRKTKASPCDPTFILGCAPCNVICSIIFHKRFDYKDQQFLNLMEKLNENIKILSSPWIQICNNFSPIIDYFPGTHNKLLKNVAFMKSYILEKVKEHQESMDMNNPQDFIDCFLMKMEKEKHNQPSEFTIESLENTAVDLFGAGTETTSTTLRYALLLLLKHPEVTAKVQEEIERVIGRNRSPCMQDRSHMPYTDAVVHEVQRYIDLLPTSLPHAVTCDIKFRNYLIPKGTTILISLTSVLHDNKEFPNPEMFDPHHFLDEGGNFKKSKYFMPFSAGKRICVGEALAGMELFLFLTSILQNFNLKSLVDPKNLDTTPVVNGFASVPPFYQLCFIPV
Sequence of CYP2D6 (P10635 whole entry): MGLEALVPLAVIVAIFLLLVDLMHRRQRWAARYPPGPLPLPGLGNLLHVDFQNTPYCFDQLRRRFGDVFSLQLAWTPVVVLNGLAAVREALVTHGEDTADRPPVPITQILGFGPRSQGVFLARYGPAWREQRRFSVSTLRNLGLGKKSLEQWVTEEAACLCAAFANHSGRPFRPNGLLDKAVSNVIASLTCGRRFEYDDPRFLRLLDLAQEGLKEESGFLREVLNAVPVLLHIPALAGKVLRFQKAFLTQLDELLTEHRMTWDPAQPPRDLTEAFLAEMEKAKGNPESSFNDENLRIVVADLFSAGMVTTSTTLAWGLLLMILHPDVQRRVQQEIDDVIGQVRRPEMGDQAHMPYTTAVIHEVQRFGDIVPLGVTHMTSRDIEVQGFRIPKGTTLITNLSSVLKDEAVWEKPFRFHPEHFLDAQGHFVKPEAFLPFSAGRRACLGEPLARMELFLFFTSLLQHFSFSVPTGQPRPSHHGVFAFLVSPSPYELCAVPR

| SMILES | MIC (Streptococcus pyogenes) | MIC (Staphylococcus) | MIC (Enterococcus faecalis) | MIC (Staphylococcus aureus) | MIC (Enterococcus faecium) | MIC (Streptococcus pneumoniae) | MIC (Streptococcus agalactiae) | MIC (Haemophilus influenzae) | activity at 10 µM (CYP2C9) | IC50 [1] | activity at 10 µM (CYP1A2) | activity at 10 µM (CYP2D6) | activity at 10 µM (MAO-A) | activity at 10 µM (CYP3A4) | activity at 10 µM (MAO-B) |
| --- | --- | --- | --- | --- | --- | --- | --- | --- | --- | --- | --- | --- | --- | --- | --- |
| CCOC(=O)C(Cl)=C1CCN(c2ccc(N3C[C@H](Cn4ccnn4)OC3=O)cc2F)CC1 | 6.25 µg/mL (≈ 13.5 µM) | 25 µg/mL (≈ 53.9 µM) | 12.5 µg/mL (≈ 26.9 µM) | 25 µg/mL (≈ 53.9 µM) | 25 µg/mL (≈ 53.9 µM) | 12.5 µg/mL (≈ 26.9 µM) | 6.25 µg/mL (≈ 13.5 µM) | 6.25 µg/mL (≈ 13.5 µM) |  |  |  |  |  |  |  |
| CCOC(=O)C(Cl)=C1CCN(c2ccc(N3C[C@H](Cn4cc(F)nn4)OC3=O)cc2F)CC1 | 50 µg/mL (≈ 104 µM) | 100 µg/mL (≈ 208 µM) | 100 µg/mL (≈ 208 µM) | 100 µg/mL (≈ 208 µM) | 100 µg/mL (≈ 208 µM) | 100 µg/mL (≈ 208 µM) | 25 µg/mL (≈ 51.9 µM) | 50 µg/mL (≈ 104 µM) |  |  |  |  |  |  |  |
| CC(C#N)=C1CCN(c2ccc(N3C[C@H](Cn4ccnn4)OC3=O)cc2F)CC1 | 0.39 µg/mL (≈ 0.984 µM) | 1.56 µg/mL (≈ 3.94 µM) | 1.56 µg/mL (≈ 3.94 µM) | 1.56 µg/mL (≈ 3.94 µM) | 1.56 µg/mL (≈ 3.94 µM) | 0.19 µg/mL (≈ 0.479 µM) | 0.19 µg/mL (≈ 0.479 µM) | 0.39 µg/mL (≈ 0.984 µM) | 61.5% | 213 µM | 45.7% | 65.1% | 34.8% | 7.45% | 74.8% |
| CC(C#N)=C1CCN(c2ccc(N3C[C@H](Cn4cc(F)nn4)OC3=O)cc2F)CC1 | 6.25 µg/mL (≈ 15.1 µM) | 100 µg/mL (≈ 241 µM) | 100 µg/mL (≈ 241 µM) | 100 µg/mL (≈ 241 µM) | 100 µg/mL (≈ 241 µM) | 6.25 µg/mL (≈ 15.1 µM) | 12.5 µg/mL (≈ 30.2 µM) | 6.25 µg/mL (≈ 15.1 µM) | 64.8% | 21 µM | 92.8% | 106% | 10.2% | 21.4% | 34.8% |
| N#CC1(O)CCN(c2ccc(N3C[C@H](Cn4ccnn4)OC3=O)cc2F)CC1 | 0.78 µg/mL (≈ 2.02 µM) | 3.12 µg/mL (≈ 8.07 µM) | 3.12 µg/mL (≈ 8.07 µM) | 3.12 µg/mL (≈ 8.07 µM) | 3.12 µg/mL (≈ 8.07 µM) | 0.78 µg/mL (≈ 2.02 µM) | 1.56 µg/mL (≈ 4.04 µM) | 1.56 µg/mL (≈ 4.04 µM) |  |  |  |  |  |  |  |
| N#CC1(O)CCN(c2ccc(N3C[C@H](Cn4cc(F)nn4)OC3=O)cc2F)CC1 | 6.25 µg/mL (≈ 15.5 µM) | 100 µg/mL (≈ 247 µM) | 100 µg/mL (≈ 247 µM) | 100 µg/mL (≈ 247 µM) | 100 µg/mL (≈ 247 µM) | 6.25 µg/mL (≈ 15.5 µM) | 12.5 µg/mL (≈ 30.9 µM) | 6.25 µg/mL (≈ 15.5 µM) |  |  |  |  |  |  |  |
| N#CC1=CCN(c2ccc(N3C[C@H](Cn4ccnn4)OC3=O)cc2F)CC1 | 1.56 µg/mL (≈ 4.23 µM) | 3.12 µg/mL (≈ 8.47 µM) | 3.12 µg/mL (≈ 8.47 µM) | 3.12 µg/mL (≈ 8.47 µM) | 3.12 µg/mL (≈ 8.47 µM) | 1.56 µg/mL (≈ 4.23 µM) | 1.56 µg/mL (≈ 4.23 µM) | 1.56 µg/mL (≈ 4.23 µM) |  |  |  |  |  |  |  |
| N#CC1=CCN(c2ccc(N3C[C@H](Cn4cc(F)nn4)OC3=O)cc2F)CC1 | 50 µg/mL (≈ 129 µM) | 100 µg/mL (≈ 259 µM) | 50 µg/mL (≈ 129 µM) | 100 µg/mL (≈ 259 µM) | 50 µg/mL (≈ 129 µM) | 6.25 µg/mL (≈ 16.2 µM) | 100 µg/mL (≈ 259 µM) | 6.26 µg/mL (≈ 16.2 µM) |  |  |  |  |  |  |  |
| CC(=O)NC[C@H]1CN(c2ccc(N3CCC(=CC#N)CC3)c(F)c2)C(=O)O1 | 0.78 µg/mL (≈ 2.09 µM) | 3.12 µg/mL (≈ 8.38 µM) | 3.12 µg/mL (≈ 8.38 µM) | 3.12 µg/mL (≈ 8.38 µM) | 3.12 µg/mL (≈ 8.38 µM) | 0.39 µg/mL (≈ 1.05 µM) | 0.78 µg/mL (≈ 2.09 µM) | 0.78 µg/mL (≈ 2.09 µM) |  |  |  |  |  |  |  |
| CC(=O)NC[C@H]1CN(c2ccc(N3CCOCC3)c(F)c2)C(=O)O1 [LINEZOLID] | 0.78 µg/mL (≈ 2.31 µM) | 3.12 µg/mL (≈ 9.25 µM) | 3.12 µg/mL (≈ 9.25 µM) | 3.12 µg/mL (≈ 9.25 µM) | 1.56 µg/mL (≈ 4.62 µM) | 0.78 µg/mL (≈ 2.31 µM) | 1.56 µg/mL (≈ 4.62 µM) | 0.78 µg/mL (≈ 2.31 µM) |  |  |  |  | 6.79% |  | 31.4% |
